We go through seven compounds from patent publication US9683934B2, “Terahertz spectroscopy for predicting stability of amorphous drugs” (Cambridge Enterprise Limited, priority 2013, dated 2017).

Data set [1] in a line: Glass-transition temperature, Tg. In kind it is physicochemical.
Data set [2] can be described thus: Terahertz time-domain spectroscopy (THz-TDS) dielectric losses of polyalcohols, linear fits ε″(T/Tg)=A+BT/Tg. In kind it is physicochemical. To be noted: for B3, linear coefficient of ε″(T/Tg)=A+BT/Tg in region (iii) / B1, linear coefficient of ε″(T/Tg)=A+BT/Tg in region (i) / B2, linear coefficient of ε″(T/Tg)=A+BT/Tg in region (ii): 1 THz, brackets = standard deviation at last decimal place; for B3, linear coefficient of ε″(T/Tg)=A+BT/Tg in region (iii): above Tg; for B1, linear coefficient of ε″(T/Tg)=A+BT/Tg in region (i): below about 0.6 Tg; for Tα, crossover point of linear fits from region (ii) to region (iii) / Tβ, crossover point of linear fits from region (i) to region (ii) / Tβ/Tg: dielectric losses at 1 THz; for B2, linear coefficient of ε″(T/Tg)=A+BT/Tg in region (ii): between about 0.6 Tg and Tg. The source says: In these examples, systematic THz-TDS study allows direct access to the complex dielectric function for the frequency range of 0.1-3 THz, over a wide range of temperatures. For these experiments, the samples were melted (except glycerol, which is liquid at room temperature), loaded into a continuous-flow cryostat and cooled at a rate of approximately 25 K·min^−1 to 80 K, followed by subsequent heating by 10 K increments to 310 K. Spectra were acquired using a THz-TDS setup operating in transmission geometry. All four polyalcohols were purchased from Sigma-Aldrich with >99% purity. The samples were used without further purification. […] The solid lines represent linear fits to the data in regions (i) below a transition temperature of about 0.6 Tg, (ii) between the transition temperature and Tg, and (iii), above Tg. The dashed vertical lines highlight the temperatures 0.6Tg and Tg, respectively. Tβ and Tα represent the crossover points (changes in gradient) of the linear fits from region (i) to region (ii), and from region (ii) to region (iii), respectively. […] The temperature dependence of ∈″(v) at v=1 THz is shown in FIG. 6 for all four polyalcohol materials. Here, we use the rescaled temperature T/Tg on the abscissa to compare the common features of the glassy state between the different polyalcohols. Three absorption regimes can be resolved in all samples: (i) temperature-independent losses; ii) a weak temperature dependence of losses below Tg; and iii) a strong temperature dependence of losses above Tg, as proposed previously. More detailed information was extracted by fitting the data points with an empirical linear fit, viz. ∈″(T/Tg)=A+BT/Tg, in each of the respective temperature regions. In Table I, we summarize the crossover temperatures Tβ and Tα between regions (i)-(ii) and (ii)-(iii), respectively, together with the respective gradients B1,2,3 obtained separately for each region, (i), (ii) and (iii). For all samples, Tα corresponds to Tg, the temperature above which the temperature-dependent part of ∈″(v) becomes dominated by the primary dielectric relaxation.

For data set [3] the following is noted: known from earlier investigations; cited from earlier work.
The nature of data set [4]: Terahertz absorption coefficient of amorphous paracetamol and indomethacin at 1 THz versus T/Tg. It counts as physicochemical. To be noted: transmission. An excerpt:
FIG. 3 plots the results of the characterisation of these materials. FIG. 3 plots the absorption coefficient for terahertz radiation (α/cm^−1) measured in transmission through the material at 1 THz, against temperature (plotted as T/Tg) for each material. As set out in the Summary of the Invention, the rate of change of the loss of EM radiation with temperature (the gradient of the graph in FIG. 3) may then be assessed, or measured, and as appropriate compared with a predetermined value in order to achieve a quantitative, or relative, characterisation of the stability of the amorphous material as described below. In FIG. 3, the plotted results for indomethacin show two distinct linear regions, firstly a small and constant rate of change, or gradient, for the absorption of the radiation below Tg, and secondly a marked change to a higher rate of change, or gradient, above Tg. By contrast the plotted results for paracetamol show three different linear regions, namely a low rate of change below a transition temperature of about 0.6 Tg, a higher rate of change between 0.6 Tg and Tg, and a still higher rate of change above Tg.

The conditions of data set [5]: cited from earlier work; for stability of the glass (amorphous phase): known from direct measurements of crystallisation during storage; for resistance to crystallisation of the amorphous material below Tg: stored below Tg.
[6] abbreviates: trehalose/glycerol mixtures by glycerol weight concentration, Table 3.

For `OC[C@H]1O[C@H](O[C@H]2O[C@H](CO)[C@@H](O)[C@H](O)[C@H]2O)[C@H](O)[C@@H](O)[C@@H]1O` [0%, trehalose], the Tg in data set [1] (setting [6]) came to 115 °C.
For the compound `OCC(O)CO` [glycerol], in data set [2], the “B3, linear coefficient of ε″(T/Tg)=A+BT/Tg in region (iii)” value (shortened to “B3, linear coefficient”) is listed as 0.64(1); the “B1, linear coefficient of ε″(T/Tg)=A+BT/Tg in region (i)” value (shortened to “B1, linear coefficient”) was 0.03(1); the “Tα, crossover point of linear fits from region (ii) to region (iii)” value (“Tα, crossover point of linear fits” for short) came out at 189 K. In data set [1] (polyalcohols, Table 1), this compound gave a Tg of -81.4 °C. In addition, in data set [1] (setting [6]), the Tg is -83 °C. Besides, in data set [3], the “fragility index, m” value is recorded as 57.
Regarding `COc1ccc2c(c1)c(CC(=O)O)c(C)n2C(=O)c1ccc(Cl)cc1` [indomethacin], the “thermal change in absorption of terahertz radiation between 0.6 Tg-1.0 Tg” value in data set [4] is listed as “very low”. Besides, in data set [5], the “stability of the glass (amorphous phase)” value was “very good stability” and the “resistance to crystallisation of the amorphous material below Tg” value is “much more stable”.
Consider `CC(=O)Nc1ccc(O)cc1` [paracetamol], for which the “thermal change in absorption of terahertz radiation between 0.6 Tg-1.0 Tg” value in data set [4] is reported as “well developed”. Also, in data set [5], the “stability of the glass (amorphous phase)” value is reported as “poor stability” and the “resistance to crystallisation of the amorphous material below Tg” value is reported as “crystallises rather readily”.
As to `OC[C@@H](O)[C@@H](O)[C@H](O)[C@@H](O)CO` [sorbitol], in data set [2], the “B3, linear coefficient” value is on record as 1.92(5); the “B1, linear coefficient” value is given as 0.02(2); the “B2, linear coefficient of ε″(T/Tg)=A+BT/Tg in region (ii)” value (shortened to “B2, linear coefficient”) was 0.34(2); the “Tα, crossover point of linear fits” value is 265 K. In addition, in data set [2], the “Tβ, crossover point of linear fits from region (i) to region (ii)” value (from here on “Tβ, crossover point of linear fits”) is on record as 150 K and the Tβ/Tg is 0.56. Further, the “stability of the amorphous material indicated by gradient in region (ii) and changes in gradient” value in data set [2] (FIG. 5) is “relatively poor stability”. Moreover, the Tg in data set [1] (polyalcohols, Table 1) is -4.8 °C. For the same compound, the “fragility index, m” value in data set [3] was 128.
As for `OC[C@@H](O)[C@H](O)CO` [threitol], in data set [2], the “B3, linear coefficient” value is on record as 0.43(15); the “B1, linear coefficient” value is on record as 0.07(1); the “B2, linear coefficient” value is 0.09(1); the “Tα, crossover point of linear fits” value is given as 228 K. For the same compound, in data set [2], the “Tβ, crossover point of linear fits” value is reported as 147 K and the Tβ/Tg amounted to 0.65. For the same compound, in data set [2] (during heating in the THz-TDS run), the “temperature above which the sample recrystallised” value is given as “above 250 K”. The Tg in data set [1] (polyalcohols, Table 1) was -46.8 °C. The “fragility index, m” value in data set [3] is recorded as 79.
Consider `OC[C@@H](O)[C@H](O)[C@@H](O)CO` [xylitol], for which, in data set [2], the “B3, linear coefficient” value is reported as 0.82(4); the “B1, linear coefficient” value is listed as 0.06(1); the “B2, linear coefficient” value was 0.13(3); the “Tα, crossover point of linear fits” value was 248 K. Besides, in data set [2], the “Tβ, crossover point of linear fits” value stood at 167 K and the Tβ/Tg is given as 0.68. For the same compound, the Tg in data set [1] (polyalcohols, Table 1) is -25.3 °C. The “fragility index, m” value in data set [3] is reported as 94.
